The source of these data is patent US20040103453A1, “Lipoxygenase genes, promoters, transit peptides and proteins thereof” (priority 2000, published 2004).

Assay [1] concerns lipoxygenase (LOX, linoleate:oxygen oxidoreductase, EC 1.13.11.12). The conditions noted are these: treatment of rice; cited from earlier work.
The test system of assay [2] is rice blast disease. The conditions noted are these: treatment of rice; cited from earlier work.
Assay [3] relates to RCI-1 transcripts. In words: RNA gel blot (Northern) analysis of RCI-1 transcripts in treated rice leaves. Format: in vivo, Oryza sativa cv. Kusabue. The conditions noted are these: for RCI-1 transcript (mRNA) accumulation: RNA from chemically treated rice leaves, INA and BTH sprayed onto leaves, probenazole by soil drench.
Assay [4] has as its system RLL2 transcripts. In words: RNA gel blot probed with rice LOX cDNA RLL2. Format: in vivo. The conditions noted are these: RNA from treated rice plants.
Assay [5] concerns lipoxygenase (LOX) enzyme activity in rice leaves. In words: LOX enzyme activity in BTH-treated rice leaves. The format is in vivo, Oryza sativa cv. Kusabue. The conditions noted are these: between 24 and 48 h after BTH treatment.
The subject of assay [6] is L-2 transcripts. In words: RNA gel blot probed with rice LOX cDNA L-2. The format is in vivo. The conditions noted are these: RNA from treated rice plants.
The nature of assay [7]: Photospectrometric lipoxygenase activity of recombinant RCI-1 enzyme extract. The conditions noted are these: linoleic acid as substrate.
Method: Production of recombinant RCI-1 protein is induced by addition of 1 mM IPTG (final concentration) to a 250 ml E. coli M15 culture grown to an OD600 of 1 and further incubation on a shaker overnight at 19° C. The cells are harvested by centrifugation (5000 g, 10 minutes) and resuspended in 5 ml lysis buffer (50 mM Na-phosphate buffer pH 7.5 containing 1 mg l-1 lysozyme). After a 30 minute incubation on ice, the lysate is centrifuged (12000 g, 15 minutes) and the pellet is transferred into a mortar and ground in extraction buffer (0.1 M K-phosphate buffer pH 7, 30 mg polyvinyl-poly-pyrrolidone, 1 mM EDTA). After centrifugation, the clear supernatant is used as an enzyme preparation for further biochemical analysis.
Lipoxygenase activity is measured at 30° C. photospectrometrically at 234 nm using linoleic acid as a substrate and 5-20 μl from the recombinant RCI-1 enzyme extract (Bohland et al. (1997) Plant Physiol. 114, 679-685). For determination of the pH optimum, different buffers with overlapping pH ranges (pH 4-6: 0.1 M Na-acetate; pH 6-8: 0.1 M Na-phosphate; pH 8-10: 0.1 M Tris-HCl) are used. The molar extinction coefficient of the reaction product, 2.5×10^7 cm^−1 mol^−1, is used for the calculation of the enzyme activity.
The nature of assay [8]: HPLC analysis of reaction products of recombinant RCI-1. The conditions noted are these: linoleic acid or linolenic acid as substrate, 0.1 M Tris-HCl pH 8.8, 20 min, 30° C.
Method: Lipoxygenase activity is measured at 30° C. photospectrometrically at 234 nm using linoleic acid as a substrate and 5-20 μl from the recombinant RCI-1 enzyme extract (Bohland et al. (1997) Plant Physiol. 114, 679-685). For determination of the pH optimum, different buffers with overlapping pH ranges (pH 4-6: 0.1 M Na-acetate; pH 6-8: 0.1 M Na-phosphate; pH 8-10: 0.1 M Tris-HCl) are used. The molar extinction coefficient of the reaction product, 2.5×10^7 cm^−1 mol^−1, is used for the calculation of the enzyme activity. […] The products of the enzymatic activity of the RCI-1 protein are analyzed by HPLC (Bohland et al. (1997) Plant Physiol. 114, 679-685). Approximately 0.2 nkat enzyme activity obtained from recombinant RCI-1 protein is incubated with 50 μl substrate solution (10 μl of linoleic or α-linolenic acid, respectively; 20 μl ethanol, 20 μl H2O) in 2 ml 0.1 M Tris-HCl pH 8.8 for 20 min. at 30° C. The reaction is stopped by lowering the pH to 3.0 with diluted HCl, and the hydroperoxides are extracted with 1 ml of CHCl3 followed by two washes with water. […] Products are detected at 234 nm and standards are obtained from Biomol (Hamburg, Germany) or prepared from linoleic or α-linolenic acid by incubation with soybean lipoxygenase, respectively, as described (Bohland et al. (1997) Plant Physiol. 114, 679-685).
Setting [9] is: rice leaves treated with INA, time course, RNA gel blot.

Entries after “also recorded” stand apart in the source; their conditions may differ.

Take `N#CCNC(=O)c1ccnc(Cl)c1` [N-cyanomethyl-2-chloroisonicotinamid]: the “induction of the enzyme lipoxygenase” value in assay [1] is recorded as “induced the enzyme lipoxygenase”. Also, in assay [2], the “resistance inducing activity against rice blast disease” value was “good resistance inducing activity”.
For `CSC(=O)c1cccc2nnsc12` [BTH, benzo(1,2,3)thiadiazole-7-carbothioic acid S-methyl ester], the “RCI-1 transcript (mRNA) accumulation” value in assay [3] is recorded as “induces RCI1 transcript accumulation; also recorded: strong hybridization signal”. The RLL2 transcript accumulation entry in assay [4] is “do not accumulate”. In addition, the “LOX enzymatic activity in rice leaves” value in assay [5] is recorded as “significant increase”. The L-2 transcript accumulation result in assay [6] is recorded as “do not accumulate”.
As to `O=C(O)c1cc(Cl)nc(Cl)c1` [INA, 2,6-dichloroisonicotinic acid], the “RCI-1 transcript (mRNA) accumulation” value in assay [3] is on record as “strong hybridization signal”. Further, in assay [3] (setting [9]), the “time after treatment at which RCI-1 transcripts reach maximal levels” value lay within 24 to 48 h and the “time after treatment at which RCI-1 transcripts start to accumulate” value worked out at 8 h. Besides, the RLL2 transcript accumulation entry in assay [4] is given as “do not accumulate”. In addition, in assay [6], the L-2 transcript accumulation entry is listed as “do not accumulate”.
For `C=CCOC1=NS(=O)(=O)c2ccccc21` [probenazole], the “RCI-1 transcript (mRNA) accumulation” value in assay [3] was “induces RCI1 transcript accumulation; also recorded: strong hybridization signal”. Moreover, the “time course of RCI-1 mRNA accumulation” value in assay [3] (probenazole soil drench, compared with INA and BTH spraying) is recorded as “delayed time course”. The RLL2 transcript accumulation result in assay [4] was “do not accumulate”. In addition, the L-2 transcript accumulation result in assay [6] is given as “do not accumulate”.
In the case of `CC/C=C\C[C@H]1C(=O)CC[C@@H]1CC(=O)O` [jasmonic acid], in assay [3] (7 to 12 h after spraying of a 1 mM solution onto rice leaves), the RCI-1 transcript levels entry was “strongly increase”. For the same molecule, the “RCI-1 transcript (mRNA) accumulation” value in assay [3] is “strong hybridization signal”.

B1: RCI-1: rice lipoxygenase protein of 922 amino acids (SEQ ID NO:7) encoded by RCI-1 cDNA, expressed recombinantly in E. coli (protein, listed as Oryza sativa)
chain: MLTATQTLAPAVLSRSHGAPSSFSSQPRRTAAAASRVSCTRVGALSEVVNGELVVGDQEQTTDDLLTRHKNVVADYTLSATVTVSLKQDDSTPQKVADMVNRDWLFLDFFSSHIEGMHTEPQLARYSHMDGKGSFIYEASFSIPSSLDAVGAVQVVNRYSSEVYISDIDVHLCGGRHQWTDITFHCNSWIDYNPNDQRFFFPLKSYLPSQTPRGVKNLRKEELRAIRGDGRGERKEWERIYDYDVYNDLGDPDNDPATRRPVLGGRGRPYPRRCRTGRRRCRTDPSSESPPAKDGAGIYVPRDEAFTERKAGAFATKKALSALSAFTTAQRVSGDRRRGFPSLAAIDALYEDGYKNRPSSSQQEADNLEGYFREVLQKQVKLLLKGEKEEFKEELRKVFKFQTPEIHDKDKLAWFRDEEFARQTLAGMNPLSIQLVRDTDFPIFSKLDEETYGPGDSLITKELIEEQINGVMTAEEAVEKKKLFMLDYHDVLLPFVHAVRELDDTTLYASRTLFFLTEDGTLRPIAIELTRPKSPNTPQWRQVFTPGSSVAASWLWQLAKTHVLAHDTGYHQLVSHWLRTHCCVEPYVIAANRRLSQMHPIYRLLHPHFRFTMEINAQARGMLINANGIIESAFAPGKLCMELSSAVYDKFWRFDMEALPADLIRRGMAIECEDGKLELTIEDYPYANDGLLIWDSIKEWVSDYVNHYYQLASDIHMDKELQGWWNEVRTKGHPDKEEGWPELNCHGSLVEVLTTIIWVASGHHAAVNFGQYPYAGYFPNRPTIARRNMPTEGQACSHDGMQPTFVEDPVRVLLDTFPSQYQTTLVLPVLNLLSSHSPGEEYMGTHAESAWMADREVRAAFGRFNERMMSIAEMIDCRNKDPERKNRQGPGVVPYVLLKPSYGDPKDMTSVMEMGIPNSISI
For the molecule B1, the “LOX activity of crude E. coli extract” value in assay [7] (30° C., 234 nm, control extracts no detectable LOX activity) was “increased LOX activity”. Also, the “pH of maximal LOX activity” value in assay [7] (buffers pH 4-10) is recorded as 8 to 9 pH. Also, in assay [8], the “reaction product (9S)-hydroperoxy-(10E,12Z,15Z) octadecatrienoic acid (9-HPOD)” value is given as “only detected in minor amounts” and the “reaction product (13S)-hydroperoxy-(9Z,11E,15Z)-octadecatrienoic acid (13-HPOD)” value is “predominant product”.
